Read-outs that look alike come from different tables or passages of the source.
Legend:
[1] = molecular target: T1, RORγ ligand binding domain (LBD) (Homo sapiens, UniProt P51449); assay: TR-FRET Activity Assay (ligand sensing, RORγ-LBD / coactivator peptide interaction, LANCE); format: biochemical
T1 construct: made in house; host or cells: E. coli BL-21 (BL3), vector pDEST15
T1 sequence (P51449 269-508 limits assumed): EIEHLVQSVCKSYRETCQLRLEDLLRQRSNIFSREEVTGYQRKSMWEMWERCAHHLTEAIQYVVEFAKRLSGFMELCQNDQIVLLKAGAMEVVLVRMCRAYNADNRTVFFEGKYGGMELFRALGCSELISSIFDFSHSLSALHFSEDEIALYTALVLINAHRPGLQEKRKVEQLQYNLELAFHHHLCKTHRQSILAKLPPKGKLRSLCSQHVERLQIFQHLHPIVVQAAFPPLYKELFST

RORγ = molecular target: T2, RORγ (UniProt P51449); assay: RORγ Gal4 Reporter Gene Assay in 293T cells (firefly and renilla luciferase); format: cell-based, human
T2 sequence (P51449 1-518): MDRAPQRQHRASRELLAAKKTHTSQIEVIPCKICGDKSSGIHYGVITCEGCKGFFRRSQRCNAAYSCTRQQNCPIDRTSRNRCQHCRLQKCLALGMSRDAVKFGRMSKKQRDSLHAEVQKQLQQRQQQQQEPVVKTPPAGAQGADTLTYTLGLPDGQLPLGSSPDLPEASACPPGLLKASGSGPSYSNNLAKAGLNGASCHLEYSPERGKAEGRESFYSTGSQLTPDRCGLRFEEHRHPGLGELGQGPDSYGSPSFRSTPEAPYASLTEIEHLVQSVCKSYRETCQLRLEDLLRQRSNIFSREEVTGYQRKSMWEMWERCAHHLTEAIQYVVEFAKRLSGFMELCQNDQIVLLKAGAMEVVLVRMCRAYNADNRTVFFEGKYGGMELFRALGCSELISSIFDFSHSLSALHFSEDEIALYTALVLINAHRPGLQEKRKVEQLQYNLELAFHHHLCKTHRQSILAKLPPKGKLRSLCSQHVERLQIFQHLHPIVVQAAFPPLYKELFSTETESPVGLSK

[2] = first value of the cell FRET/FF/REN, TR-FRET activity assay, read-out: pIC50 (FRET) (converted)
[3] = second value of the cell, Gal4 reporter gene assay in 293T cells, firefly luciferase
[4] = third value of the cell, Gal4 reporter gene assay in 293T cells, renilla normalised luciferase

IC50 [1, 2] | pIC50 (FF) (RORγ; [3]) | pIC50 (REN) (RORγ; [4]) | SMILES | IC50 [1] | pIC50 (FF) (RORγ) | pIC50 (REN) (RORγ)
0.398 µM | 7.0 | 7.1 | Cc1c(C(=O)NC2CCOCC2)cc(-c2ccc(S(=O)(=O)NC(C)(C)C)c(Br)c2)n1CC1CCCCC1 [17/157] | – | – | –
– | – | – | Cc1c(C(=O)NC2CCOCC2)cc(-c2ccc(S(=O)(=O)NC(C)(C)C(F)(F)F)c(C(F)(F)F)c2)n1CC1CCCCC1 [17/160] | 0.2 µM | 6.7/7.8/8.0 | 6.7/7.8/8.0
0.631 µM | 7.6 | 7.6 | Cc1c(C(=O)NCCC(C)(C)C(=O)O)cc(-c2ccc(S(=O)(=O)NC(C)(C)C(F)(F)F)c(C(F)(F)F)c2)n1CC1CCCCC1 [17/161] | – | – | –
0.794 µM | 7.5 | 7.7 | Cc1c(C(=O)NCC(C)(C)c2noc(=O)[nH]2)cc(-c2cc(C(C)(C)C)cc(C3(C)CC3)c2)n1CC1CCCCC1 [17/162] | – | – | –
1.58 µM | 7.0 | 7.2 | Cc1c(C(=O)NCCC(C)(C)C(=O)O)cc(-c2ccc(S(=O)(=O)NC(C)(C)C)c(C(C)(C)C)c2)n1CC1CCCCC1 [17/163] | – | – | –
1.26 µM | 6.4 | 6.5 | COC1(c2cc(-c3cc(C(=O)NC4CCOCC4)c(C)n3CC3CCCCC3)ccc2S(=O)(=O)NC(C)(C)C)CC1 [17/164] | – | – | –
– | – | – | Cc1c(C(=O)NC2CCOCC2)cc(-c2ccc(S(=O)(=O)NC(C)(C)C)c(OCC(C)(C)C)c2)n1CC1CCCCC1 [17/165] | 5.01 µM | 5.3/6.5/6.9 | 5.3/6.5/6.9
0.158 µM | 7.8 | 8.0 | Cc1c(C(=O)NC2CCOCC2)cc(-c2ccc(S(=O)(=O)NC(C)(C)C)c(OC(F)(F)F)c2)n1CC1CCCCC1 [17/166] | – | – | –
0.794 µM | 6.6 | 6.8 | Cc1c(C(=O)NCCC(C)(C)C(=O)O)cc(-c2ccc(S(=O)(=O)NC(C)(C)C)c(OC(F)F)c2)n1CC1CCCCC1 [17/167] | – | – | –
0.794 µM | 6.7 | 6.7 | CC(C)(C)NS(=O)(=O)c1ccc(-c2cc(C(=O)NCCC(C)(C)C(=O)O)c(C(N)=O)n2CC2CCCCC2)cc1C(F)(F)F [17/169] | – | – | –
0.316 µM | 6.8 | 7.0 | Cc1c(C(=O)N[C@H]2C[C@](C)(C(=O)O)C2)cc(-c2ccc(S(=O)(=O)NC(C)(C)C)c(C(F)F)c2)n1CC1CCCCC1 [17/170] | – | – | –
0.398 µM | 7.5 | 7.5 | Cc1c(C(=O)NCCC(C)(C)C(=O)O)cc(-c2ccc(S(=O)(=O)NC(C)(C)C)c(OC(F)(F)F)c2)n1CC1CCCCC1 [17/172] | – | – | –
0.316 µM | 7.3 | 7.3 | Cc1c(C(=O)NCC(C)(C)C(=O)O)cc(-c2ccc(S(=O)(=O)NC(C)(C)C)c(OC(F)(F)F)c2)n1CC1CCCCC1 [17/173] | – | – | –
0.2 µM | 7.1 | 7.1 | Cc1c(C(=O)N[C@H]2C[C@H](C(=O)O)C2)cc(-c2ccc(S(=O)(=O)NC(C)(C)C)c(OC(F)(F)F)c2)n1CC1CCCCC1 [17/174] | – | – | –
0.794 µM | 6.6 | 6.7 | Cc1c(C(=O)NC2CCOCC2)cc(-c2ccc(S(=O)(=O)NC(C)(C)C)c(C(F)(F)F)c2)n1C1CC12CCCC2 (stereo not drawn) [17/175] | – | – | –
0.251 µM | 7.1 | 7.0 | Cc1c(C(=O)NC2CCOCC2)cc(-c2ccc(S(=O)(=O)NC(C)(C)C)c(C(F)(F)F)c2)n1CC1(C)CCCC1 [17/176] | – | – | –
0.158 µM | 7.3 | 7.4 | Cc1c(C(=O)NC2CCOCC2)cc(-c2ccc(S(=O)(=O)NC(C)(C)C)c(C(F)(F)F)c2)n1CC1CC(C)C1 (stereo not drawn) [17/177] | – | – | –
0.794 µM | 7.9 | 7.9 | Cc1c(C(=O)NCCc2noc(=O)[nH]2)cc(-c2cc(C(C)(C)C)cc(C3(C)CC3)c2)n1CC1CCCCC1 [17/178] | – | – | –

IC50 [1, 2] | pIC50 (FF) (RORγ; [3]) | pIC50 (REN) (RORγ; [4]) | SMILES | IC50 [1] | pIC50 (FF) (RORγ) | pIC50 (REN) (RORγ)
0.398 µM | 6.1 | 6.1 | Cc1c(C(=O)N2CC(CC(=O)O)C2)cc(-c2ccc(S(=O)(=O)NC(C)(C)C)c(C(F)(F)F)c2)n1CC1CCCCC1 [17/179] | – | – | –
0.631 µM | 7.1 | 7.2 | Cc1c(C(=O)N2CC(C(C)(C)C(=O)O)C2)cc(-c2ccc(S(=O)(=O)NC(C)(C)C)c(C(F)(F)F)c2)n1CC1CCCCC1 [17/180] | – | – | –
– | – | – | Cc1c(C(=O)NC23CCC(C(=O)O)(CC2)CC3)cc(-c2ccc(S(=O)(=O)NC(C)(C)C)c(C(F)(F)F)c2)n1CC1CCCCC1 [17/182] | 0.501 µM | 6.3/7.8/7.9 | 6.3/7.8/7.9
0.2 µM | 7.9 | 8.1 | Cc1c(C(=O)NC2CCOCC2)cc(-c2ccc(S(=O)(=O)NC(C)(C)C)c3sccc23)n1CC1CCCCC1 [17/183] | – | – | –
0.794 µM | 6.9 | 7.1 | Cc1c(C(=O)N[C@H]2C[C@H](C(=O)O)C2)cc(-c2ccc(S(=O)(=O)NC(C)(C)C)c3sccc23)n1CC1CCCCC1 [17/184] | – | – | –
– | – | – | Cc1c(C(=O)NC2CCOCC2)cc(-c2cc(C(C)(C)O)cc3ccccc23)n1CC1CCCCC1 [17/185] | 0.501 µM | 6.3/6.4/6.2 | 6.3/6.4/6.2
15.8 µM | < 4.7 | < 4.7 | Cc1c(C(=O)N[C@H]2C[C@H](C(=O)O)C2)cc(-c2cc(C(C)(C)O)cc3ccccc23)n1CC1CCCCC1 [17/187] | – | – | –
5.01 µM | 6.3 | 6.3 | Cc1c(C(=O)N[C@H]2C[C@H](C(=O)O)C2)cc(-c2cc(C(=O)NC(C)(C)C)cc3ccccc23)n1CC1CCCCC1 [17/189] | – | – | –
1.58 µM | 6.5 | 6.6 | Cc1c(C(=O)NC2CCOCC2)cc(-c2cnc(S(=O)(=O)NC(C)(C)C)c(C(F)(F)F)c2)n1CC1CCCCC1 [17/190] | – | – | –
– | – | – | Cc1c(C(=O)NCC(C)(C)O)cc(-c2cc(C(C)(C)C)cc(C(C)(C)C)c2OC(F)F)n1CC1CCCCC1 [17/191] | 1.26 µM | 5.9/7.0/6.9 | 5.9/7.0/6.9
1.58 µM | 6.5 | 6.4 | Cc1cc(C(C)(C)C)cc(-c2cc(C(=O)NCC(C)(C)O)c(C)n2CC2CCCCC2)c1OC(F)F [17/192] | – | – | –
2.51 µM | 6.9 | 7.0 | Cc1c(C(=O)N[C@H]2C[C@H](C(=O)O)C2)cc(-c2cc(C(C)(C)C)cc(C(C)(C)C)c2OC(F)F)n1CC1CCCCC1 [17/193] | – | – | –
12.6 µM | 6.4 | 6.5 | Cc1cc(C(C)(C)C)cc(-c2cc(C(=O)N[C@H]3C[C@H](C(=O)O)C3)c(C)n2CC2CCCCC2)c1OC(F)F [17/194] | – | – | –
0.631 µM | 7.6 | 7.6 | Cc1c(C(=O)N[C@H]2C[C@H](C(=O)O)C2)cc(-c2cc(OCC(C)(C)C)nc(C(C)(C)C)c2)n1CC1CCCCC1 [17/195] | – | – | –
3.98 µM | 7.0 | 7.0 | Cc1c(C(=O)N[C@H]2C[C@H](C(=O)O)C2)cc(-c2cc(NCC(C)(C)C)nc(C(C)(C)C)c2)n1CC1CCCCC1 [17/196] | – | – | –
0.794 µM | 7.9 | 7.7 | CCC(C)(C)NS(=O)(=O)c1ccc(-c2cc(C(=O)N[C@H]3C[C@H](C(=O)O)C3)c(C)n2CC2CCCCC2)c(Cl)c1C [17/197] | – | – | –
– | – | – | Cc1c(C(=O)N2CCOCC2)cc(-c2ccc(S(=O)(=O)NC(C)(C)C)c(C(F)(F)F)c2)n1CC1CCCCC1 [17/198] | 0.501 µM | 6.3/6.8/6.9 | 6.3/6.8/6.9
0.631 µM | 6.6 | 6.7 | Cc1c(C(=O)N2CCS(=O)(=O)CC2)cc(-c2ccc(S(=O)(=O)NC(C)(C)C)c(C(F)(F)F)c2)n1CC1CCCCC1 [17/199] | – | – | –

SMILES | IC50 [1, 2] | pIC50 (FF) (RORγ; [3]) | pIC50 (REN) (RORγ; [4]) | IC50 [1] | pIC50 (FF) (RORγ) | pIC50 (REN) (RORγ)
Cc1c(C(=O)NC2CCOCC2)cc(-c2ccc(S(=O)(=O)NC(C)(C)C)c(C#N)c2)n1CC1CCCCC1 [17/158] | 0.794 µM | 6.1 | 6.2 | – | – | –
Cc1c(C(=O)NC2CCOCC2)cc(-c2cc(NCC(C)(C)C)nc(C(F)(F)F)c2)n1CC1CCCCC1 [17/159] | 1.58 µM | 6.8 | 6.9 | – | – | –
COC(C)(c1cc(-c2cc(C(=O)NC3CCOCC3)c(C)n2CC2CCCCC2)cc(C(C)(C)C)c1)C(F)(F)F (stereo not drawn) [17/186] | 0.398 µM | 6.9 | 7.1 | – | – | –
Cc1c(C(=O)NC2CCOCC2)cc(-c2cc(C(=O)NC(C)(C)C)cc3ccccc23)n1CC1CCCCC1 [17/188] | 0.794 µM | 6.8 | 6.9 | – | – | –

From patent US9815851B2, “Pyrrolo carboxamides as modulators of orphan nuclear receptor RAR-related orphan receptor-gamma (RORγ, NR1F3) activity and for the treatment of chronic inflammatory and autoimmune diseases” (PHENEX PHARMACEUTICALS AG, priority 2011, dated 2017)
